Columns and labels:
Settings in all cases: treatment: drug alone; 5 days
769-P [1] = test: GI50, drug alone; higher = less potent
Procedure: (§1)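 Primary HTS: 8 RCC cell lines treated with 8 doses (up to 10 uM) of each library drug alone for 5 days; viability read by CellTiter-Glo and normalised to DMSO. GI50 was fitted with XLfit (4-parameter), AUC is the area under the dose-response curve, and minimum viability is the lowest fraction of DMSO viability across doses.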

786-O [2] = test: GI50, drug alone; higher = less potent
Procedure: as §1

A498 [3] = test: GI50, drug alone; higher = less potent
Procedure: as §1

ACHN [4] = test: GI50, drug alone; higher = less potent
Procedure: as §1

CAKI-1 [5] = test: GI50, drug alone; higher = less potent
Procedure: as §1

SN12C [6] = test: GI50, drug alone; higher = less potent
Procedure: as §1

TK-10 [7] = test: GI50, drug alone; higher = less potent
Procedure: as §1

UO-31 [8] = test: GI50, drug alone; higher = less potent
Procedure: as §1

769-P [9] = test: minimum viability across doses, drug alone, relative to DMSO (fraction); higher = less growth inhibition
Procedure: as §1

786-O [10] = test: as above
Procedure: as §1

A498 [11] = test: as above
Procedure: as §1

ACHN [12] = test: as above
Procedure: as §1

CAKI-1 [13] = test: as above
Procedure: as §1

SN12C [14] = test: as above
Procedure: as §1

TK-10 [15] = test: as above
Procedure: as §1

UO-31 [16] = test: as above
Procedure: as §1

769-P [17] = test: AUC of dose-response viability curve, drug alone (arbitrary (AUC of normalised viability)); higher = less growth inhibition
Procedure: as §1

786-O [18] = test: as above
Procedure: as §1

A498 [19] = test: as above
Procedure: as §1

ACHN [20] = test: as above
Procedure: as §1

CAKI-1 [21] = test: as above
Procedure: as §1

SN12C [22] = test: as above
Procedure: as §1

TK-10 [23] = test: as above
Procedure: as §1

UO-31 [24] = test: as above
Procedure: as §1

Compound | GI50, drug alone (769-P [1]) | GI50, drug alone (786-O [2]) | GI50, drug alone (A498 [3]) | GI50, drug alone (ACHN [4]) | GI50, drug alone (CAKI-1 [5]) | GI50, drug alone (SN12C [6]) | GI50, drug alone (TK-10 [7]) | GI50, drug alone (UO-31 [8]) | minimum viability across doses (769-P [9]) | minimum viability across doses (786-O [10]) | minimum viability across doses (A498 [11]) | minimum viability across doses (ACHN [12]) | minimum viability across doses (CAKI-1 [13]) | minimum viability across doses (SN12C [14]) | minimum viability across doses (TK-10 [15]) | minimum viability across doses (UO-31 [16]) | AUC of dose-response viability curve (769-P [17]) | AUC of dose-response viability curve (786-O [18]) | AUC of dose-response viability curve (A498 [19]) | AUC of dose-response viability curve (ACHN [20]) | AUC of dose-response viability curve (CAKI-1 [21]) | AUC of dose-response viability curve (SN12C [22]) | AUC of dose-response viability curve (TK-10 [23]) | AUC of dose-response viability curve (UO-31 [24])
CNC(=O)c1ccccc1Sc1ccc2c(/C=C/c3ccccn3)n[nH]c2c1 [Axitinib] | 6.97 µM | > 10 µM | > 10 µM | 4.7 µM | 2.87 µM | 5.6 µM | > 10 µM | > 10 µM | 0.436 | 0.661 | 0.779 | 0.287 | 0.367 | 0.375 | 0.748 | 0.672 | 3.08 | 3.02 | 4.06 | 3.13 | 2.86 | 3.06 | 3.07 | 4.27
Cn1c(=O)n(-c2ccc(C(C)(C)C#N)cc2)c2c3cc(-c4cnc5ccccc5c4)ccc3ncc21 [BEZ235 (NVP-BEZ235)] | 0.301 µM | 0.15 µM | 0.303 µM | 0.223 µM | 0.294 µM | 0.297 µM | 0.489 µM | 0.152 µM | 0.165 | 0.139 | 0.0718 | 0.0714 | 0.0875 | 0.189 | 0.157 | 0.00561 | 2.02 | 1.74 | 2.03 | 1.86 | 1.99 | 1.96 | 2.11 | 1.69
CCN1CCN(c2ccc(Nc3cc(N(C)C(=O)Nc4c(Cl)c(OC)cc(OC)c4Cl)ncn3)cc2)CC1 [BGJ398 (NVP-BGJ398)] | > 10 µM | 2.25 µM | > 10 µM | 0.747 µM | 0.519 µM | 6.98 µM | 3.23 µM | 7.58 µM | 0.631 | 0.218 | 0.92 | 0.111 | 0.133 | 0.385 | 0.327 | 0.401 | 3.22 | 2.7 | 3.84 | 2.28 | 2.1 | 2.91 | 2.68 | 2.98
CC[C@@H]1C(=O)N(C)c2cnc(Nc3ccc(C(=O)N[C@H]4CC[C@H](N5CCN(CC6CC6)CC5)CC4)cc3OC)nc2N1C(C)C [BI6727 (Volasertib)] | 0.126 µM | 0.0123 µM | 2.03 µM | 0.13 µM | 0.157 µM | 0.123 µM | 0.293 µM | 0.0581 µM | 0.0308 | 0.00304 | 0.0429 | 0.0122 | 0.0881 | 0.0643 | 0.0289 | 0.012 | 1.66 | 0.673 | 2.78 | 1.87 | 2.01 | 1.71 | 1.93 | 2.07
CC[C@@H]1C(=O)N(C)c2cnc(Nc3ccc(C(=O)NC4CCN(C)CC4)cc3OC)nc2N1C1CCCC1 [BI 2536] | 0.12 µM | 0.0101 µM | 0.458 µM | 0.0499 µM | 0.0936 µM | 0.0549 µM | 0.317 µM | 0.0839 µM | 0.049 | 0.0067 | 0.0641 | 0.121 | 0.121 | 0.0427 | 0.0909 | 0.0104 | 1.58 | 0.585 | 1.97 | 1.37 | 1.78 | 1.37 | 1.91 | 1.61
COC(=O)c1ccc2c(c1)NC(=O)/C2=C(\Nc1ccc(N(C)C(=O)CN2CCN(C)CC2)cc1)c1ccccc1 [BIBF1120 (Vargatef)] | > 10 µM | > 10 µM | > 10 µM | 2.07 µM | 2.13 µM | > 10 µM | > 10 µM | 7.36 µM | 0.917 | 0.782 | 0.892 | 0.255 | 0.251 | 0.393 | 0.61 | 0.439 | 3.42 | 3.94 | 3.91 | 2.77 | 2.81 | 2.58 | 3.09 | 4.65
Cc1ccc(-n2nc(C(C)(C)C)cc2NC(=O)Nc2ccc(OCCN3CCOCC3)c3ccccc23)cc1 [BIRB 796 (Doramapimod)] | > 10 µM | > 10 µM | > 10 µM | > 10 µM | > 10 µM | > 10 µM | > 10 µM | > 10 µM | 0.91 | 0.748 | 0.879 | 0.709 | 0.858 | 0.796 | 0.712 | 0.787 | 3.52 | 3.46 | 4.02 | 2.88 | 3.46 | 3.36 | 3.02 | 3.74
Nc1cc(C(F)(F)F)c(-c2cc(N3CCOCC3)nc(N3CCOCC3)n2)cn1 [BKM120 (NVP-BKM120)] | 1.57 µM | 0.179 µM | 1.93 µM | 0.887 µM | 0.608 µM | 1.67 µM | 0.641 µM | 1.45 µM | 0.0668 | 0.00247 | 0.134 | 0.0858 | 0.0499 | 0.0728 | 0.0981 | 0.0226 | 2.57 | 1.56 | 2.89 | 2.31 | 2.31 | 2.23 | 2.2 | 2.65
CC(C)c1cnn2c(NCc3ccccc3)cc(NCCCCCCN)nc12.Cl [BS-181 HCl] | > 10 µM | 9.75 µM | > 10 µM | > 10 µM | > 10 µM | > 10 µM | > 10 µM | > 10 µM | 0.902 | 0.424 | 1.1 | 0.54 | 0.753 | 0.842 | 0.696 | 1.15 | 3.58 | 3.43 | 4.29 | 3.3 | 2.84 | 3.22 | 2.97 | 5.07
O=C(NCCCNc1nc(Nc2cccc(NC(=O)N3CCCC3)c2)ncc1I)c1cccs1 [BX-795] | 5.63 µM | 0.0999 µM | > 10 µM | 2.94 µM | 2.67 µM | 7.51 µM | 3.93 µM | 5.04 µM | 0.149 | 0.00247 | 0.917 | 0.217 | 0.17 | 0.458 | 0.218 | 0.0155 | 3.03 | 1.64 | 4.14 | 2.83 | 2.66 | 2.8 | 2.59 | 4.13
O=C(Nc1cccc(Nc2ncc(Br)c(NCCc3cnc[nH]3)n2)c1)N1CCCC1 [BX-912] | > 10 µM | 2.04 µM | > 10 µM | 4.2 µM | 2.07 µM | 5.44 µM | 5.33 µM | > 10 µM | 0.587 | 0.0508 | 0.742 | 0.251 | 0.139 | 0.266 | 0.292 | 0.961 | 3.15 | 2.16 | 4.04 | 3.08 | 2.59 | 2.94 | 2.81 | 3.91
Cc1nc(NC(=O)N2CCC[C@H]2C(N)=O)sc1-c1ccnc(C(C)(C)C(F)(F)F)c1 [BYL719] | > 10 µM | 1.65 µM | > 10 µM | 8.55 µM | > 10 µM | > 10 µM | 4.8 µM | > 10 µM | 0.762 | 0.155 | 0.982 | 0.396 | 0.502 | 0.638 | 0.404 | 0.927 | 3.47 | 1.81 | 4.11 | 2.83 | 3.13 | 2.83 | 2.54 | 3.94
CCN(CCO)CCCOc1ccc2c(Nc3cc(CC(=O)Nc4cccc(F)c4)n[nH]3)ncnc2c1 [Barasertib (AZD1152-HQPA)] | 4.36 µM | 0.194 µM | > 10 µM | > 10 µM | 2.08 µM | > 10 µM | > 10 µM | > 10 µM | 0.408 | 0.0818 | 1.04 | 0.583 | 0.449 | 0.74 | 0.703 | 0.767 | 2.81 | 1.76 | 4.38 | 2.71 | 2.49 | 3.06 | 2.94 | 3.35
COc1cc(Nc2c(C#N)cnc3cc(OCCCN4CCN(C)CC4)c(OC)cc23)c(Cl)cc1Cl [Bosutinib (SKI-606)] | 1.65 µM | 2.51 µM | 5.05 µM | 0.429 µM | 0.849 µM | 1.14 µM | 1.21 µM | > 10 µM | 0.111 | 0.0159 | 0.233 | 0.0885 | 0.0478 | 0.126 | 0.0431 | 0.00817 | 2.68 | 2.94 | 3.08 | 2.16 | 2.38 | 2.34 | 2.61 | 2.35
CC[C@H](Nc1ncnc2[nH]cnc12)c1nc2cccc(F)c2c(=O)n1-c1ccccc1 [CAL-101 (GS-1101)] | > 10 µM | > 10 µM | > 10 µM | > 10 µM | > 10 µM | > 10 µM | > 10 µM | > 10 µM | 0.786 | 0.613 | 0.979 | 0.64 | 0.633 | 0.777 | 0.701 | 0.926 | 3.45 | 3.15 | 4.09 | 3.17 | 3.06 | 3.2 | 3.12 | 3.87
O=c1[nH]c2ccc(Cl)cc2c(N[C@@H]2CN3CCC2CC3)c1-c1nc2ccccc2[nH]1 [CHIR-124] | 0.129 µM | 0.0365 µM | 0.498 µM | 0.0403 µM | 0.165 µM | 1.19 µM | 0.129 µM | 0.0832 µM | 0.017 | 0.0053 | 0.0252 | 0.0184 | 0.0814 | 0.0133 | 0.168 | 0.0103 | 1.61 | 0.832 | 2.43 | 1.15 | 1.73 | 2.32 | 1.68 | 1.4
